# Measurements taken from paper PMC9814250, “Single step syntheses of (1S)-aryl-tetrahydroisoquinolines by norcoclaurine synthases” (Communications Chemistry, 2020).
# Columns and labels:
# MxSafC [1] = target: T1, MxSafC (Myxococcus xanthus, UniProt Q50859); experiment: HPLC, O-methylation to C6-OMe-7b; format: biochemical; details: SAM generated in situ (EcMAT, EcMTAN), Mg2+, pH 7.5, 37 °C, 24 h; selective for (S)
# T1 construct: gene safC; recombinant in E. coli BL21(DE3), His-trap purified
# RnCOMT [2] = target: T2, RnCOMT (Rattus norvegicus, UniProt P22734); experiment: HPLC, O-methylation to C6/C7-OMe-7b; details: SAM generated in situ (EcMAT, EcMTAN), Mg2+, pH 7.5, 37 °C, 24 h; not enantioselective
# T2 construct: gene Comt; recombinant in E. coli BL21(DE3), used as lysate
# T2 sequence (P22734 1-264): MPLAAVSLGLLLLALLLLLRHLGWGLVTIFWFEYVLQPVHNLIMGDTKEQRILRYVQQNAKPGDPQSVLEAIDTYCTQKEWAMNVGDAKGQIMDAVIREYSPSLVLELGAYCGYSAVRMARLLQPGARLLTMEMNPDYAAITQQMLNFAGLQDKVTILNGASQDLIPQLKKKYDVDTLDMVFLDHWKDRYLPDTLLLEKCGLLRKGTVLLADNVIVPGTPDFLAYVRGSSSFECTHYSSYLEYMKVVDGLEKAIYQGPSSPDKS
# MxSafC [3] = target: T1, MxSafC; experiment: HPLC, O-methylation to C6-OMe-7a; format: biochemical; details: SAM generated in situ (EcMAT, EcMTAN), Mg2+, pH 7.5, 37 °C, 24 h; selective for (S)
# RnCOMT [4] = target: T2, RnCOMT; experiment: HPLC, O-methylation to C6-OMe product; details: SAM generated in situ (EcMAT, EcMTAN), Mg2+, pH 7.5, 37 °C, 24 h; not enantioselective
SMILES,"HPLC, O-methylation to C6-OMe-7b (MxSafC [1])","HPLC, O-methylation to C6/C7-OMe-7b (RnCOMT [2])","HPLC, O-methylation to C6-OMe-7a (MxSafC [3])","HPLC, O-methylation to C6-OMe product (RnCOMT [4])"
"Oc1cc2c(cc1O)[C@H](c1ccccc1)NCC2 [5b, (S)-5b]",MxSafC was found to be selective towards both (S)-5a and (S)-5b,C6:C7-OMe-7b was observed by ^1H-NMR when 5b was used as the substrate,,
"Oc1cc2c(cc1O)[C@H](C1CCCCC1)NCC2 [5a, (S)-5a]",,,MxSafC was found to be selective towards both (S)-5a and (S)-5b,"using 5a as the substrate, gave remarkable regioselectivity"
